Results taken from ChEMBL document CHEMBL5380844, “Discovery of a Novel, Potent, Orally Active, and Safe Inhibitor Targeting Human Mitochondrial RNA Polymerase” (J Med Chem, 2023).
Values after ≈ are worked out from the molar mass of the structure shown. Active and inactive are the calls of the source. The rule behind the calls is not given here.

Legend:
[1] = tested on: A2780; test: Antitumor activity against human A2780 cells xenografted in BALB/c nude mouse model assessed as reduction in […] level at 100 mg/kg, po by immunoblotting analysis; type: functional, organism-based
[2] = tested on: A2780; test: Antitumor activity against human A2780 cells xenografted in BALB/c nude mouse model assessed as reduction in tumor weight at 100 mg/kg, po administered daily and measured after 27 days relative to control; type: functional; set-up: scale not given: the % may be the effect or the level left; details: time 27 day
[3] = tested on: A2780; test: Induction of cell cycle arrest in human A2780 cells assessed as accumulation of cells at G1 phase at 50 nM measured after 96 hrs by PI staining based flow cytometry analysis (reference value: 80.81%); type: functional
[4] = Solubility in PBS at pH 7.4; type: physicochemical
[5] = tested on: A2780; test: Antitumor activity against human A2780 cells xenografted in BALB/c nude mouse model assessed as reduction in UQCRC2 level at 100 mg/kg, po by immunoblotting analysis; type: functional, organism-based
[6] = biological target: Cytochrome P450 3A4 (Homo sapiens, UniProt P08684); test: Inhibition of […] (unknown origin) using midazolam as substrate in presence of NADPH by LC/MS/MS analysis; type: ADME
[7] = tested on: A2780; test: Induction of cell cycle arrest in human A2780 cells assessed as accumulation of cells at G2 phase at 200 nM measured after 96 hrs by PI staining based flow cytometry analysis (reference value: 4.49%); type: functional
[8] = tested on: MIA PaCa-2; test: Antiproliferative activity against human MIA PaCa-2 cells incubated for 168 hrs by SRB method; type: functional, cell-based; details: MIA PaCa-2, 168 h
[9] = tested on: A2780; test: Induction of cell cycle arrest in human A2780 cells assessed as accumulation of cells at G1 phase at 100 nM measured after 96 hrs by PI staining based flow cytometry analysis (reference value: 80.81%); type: functional
[10] = tested on: A2780; test: Induction of apoptosis in human A2780 cells assessed as increase in cleaved PARP cleavage level at upto 500 nM by immunoblot analysis; type: functional, cell-based
[11] = tested on: A2780; test: Inhibition of MT-ATP6 expression in human A2780 cells at 100 nM incubated for 12 hrs by RNA sequencing analysis; type: functional, cell-based
[12] = Cmax in ICR mouse at 1 mg/kg, iv measured upto 24 hrs by LC-MS/MS analysis; type: ADME, organism-based; set-up: time < 24 hrs, dose 1 mg/kg, route iv; details: in vivo
[13] = tested on: A2780; test: Induction of mitochondrial membrane potential changes in human A2780 cells assessed as increase in Q3 phase at 0 to 5 uM measured after 96 hrs by flow cytometry analysis; type: functional, cell-based; details: dose 0-5 µM
[14] = tested on: A2780; test: Effect on 28S mRNA level in human A2780 cells by RT-qPCR analysis; type: functional, cell-based
[15] = AUC (0 to infinity) in ICR mouse at 10 mg/kg, po measured upto 24 hrs by LC-MS/MS analysis; type: ADME, organism-based; set-up: time < 24 hrs, dose 10 mg/kg, route po; details: in vivo
[16] = AUC (0 to infinity) in ICR mouse at 1 mg/kg, iv measured upto 24 hrs by LC-MS/MS analysis; type: ADME, organism-based; set-up: time < 24 hrs, dose 1 mg/kg, route iv; details: in vivo
[17] = biological target: T1, Cytochrome P450 1A2 (Homo sapiens, UniProt P05177); test: Inhibition of CYP1A2 (unknown origin) using phenacetin as substrate in presence of NADPH by LC/MS/MS analysis; type: ADME
T1 sequence (P05177 whole entry): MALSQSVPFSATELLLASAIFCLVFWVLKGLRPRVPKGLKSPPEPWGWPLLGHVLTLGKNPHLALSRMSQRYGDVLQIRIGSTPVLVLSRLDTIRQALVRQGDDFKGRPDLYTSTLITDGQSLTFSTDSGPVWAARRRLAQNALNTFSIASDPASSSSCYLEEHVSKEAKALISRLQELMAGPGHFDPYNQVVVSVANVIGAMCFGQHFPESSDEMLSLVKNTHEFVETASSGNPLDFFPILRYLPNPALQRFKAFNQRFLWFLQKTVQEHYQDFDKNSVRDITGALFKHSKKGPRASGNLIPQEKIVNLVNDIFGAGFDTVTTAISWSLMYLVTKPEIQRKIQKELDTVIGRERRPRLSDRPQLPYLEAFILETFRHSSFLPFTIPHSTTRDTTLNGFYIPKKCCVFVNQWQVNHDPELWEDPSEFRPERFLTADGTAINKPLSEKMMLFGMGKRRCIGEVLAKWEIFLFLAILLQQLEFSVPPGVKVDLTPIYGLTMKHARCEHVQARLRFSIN

[18] = Acute toxicity in Balb/c mouse assessed as effect on liver 100 mg/kg measured after 27 days by H and E staining based analysis; type: organism-based; details: in vivo, 648 h, time 27 day
[19] = tested on: A2780; test: Inhibition of MT-ND4 expression in human A2780 cells at 100 nM incubated for 12 hrs by RNA sequencing analysis; type: functional, cell-based
[20] = tested on: A2780; test: Antitumor activity against human A2780 cells xenografted in BALB/c nude mouse model assessed as reduction in mitochondrial DNA transcript level at 50 to 100 mg/kg, po administered daily; type: functional, organism-based; details: dose 50-100 mg/kg
[21] = tested on: A2780; test: Induction of apoptosis in human A2780 cells assessed as late apoptotic cells at 50 nM incubated for 96 hrs by Annexin-V/FITC and PI staining based flow cytometry analysis (reference value: 3.79%); type: functional
[22] = Antiproliferative activity against human PBMC cells incubated for 168 hrs by SRB method; type: functional, cell-based
[23] = Toxicity in Balb/c mouse assessed as effect on body weight loss at 50 to 100 mg/kg, po measured after 27 days; type: organism-based; details: in vivo, 648 h, dose 50-100 mg/kg, time 27 day
[24] = Toxicity in Balb/c mouse assessed as effect on lung at 100 mg/kg by H and E staining based analysis; type: organism-based; details: in vivo
[25] = Toxicity in Balb/c mouse assessed as effect on liver at 100 mg/kg by H and E staining based analysis; type: organism-based; details: in vivo
[26] = Toxicity in Balb/c mouse assessed as effect on heart at 100 mg/kg by H and E staining based analysis; type: organism-based; details: in vivo
[27] = tested on: A2780; test: Inhibition of mitochondrial transcript in human A2780 cells incubated for 12 hrs followed by compound removal and measured after 24 hrs by RT-qPCR analysis; type: functional, cell-based
[28] = tested on: A2780; test: Induction of apoptosis in human A2780 cells assessed as viable cells at 100 nM incubated for 96 hrs by Annexin-V/FITC and PI staining based flow cytometry analysis (reference value: 89.2%); type: functional; details: read-out: Activity
[29] = tested on: A2780; test: Antitumor activity against human A2780 cells xenografted in BALB/c nude mouse model assessed as reduction in beta-actin level at 100 mg/kg, po by immunoblotting analysis; type: functional, organism-based
[30] = tested on: A2780; test: Inhibition of MT-ND2 expression in human A2780 cells at 100 nM incubated for 12 hrs by RNA sequencing analysis; type: functional, cell-based
[31] = tested on: A2780; test: Effect on cellular senescence in human A2780 cells at 0.05 to 1 uM measured after 96 hrs by beta-galactosidase staining based analysis; type: functional, cell-based; details: dose 0.05-1 µM
[32] = tested on: A2780; test: Inhibition of MT-CO3 expression in human A2780 cells at 100 nM incubated for 12 hrs by RNA sequencing analysis; type: functional, cell-based
[33] = tested on: A2780; test: Inhibition of MT-CO1 expression in human A2780 cells at 100 nM incubated for 12 hrs by RNA sequencing analysis; type: functional, cell-based

Sequence of Cytochrome P450 3A4 (P08684 whole entry): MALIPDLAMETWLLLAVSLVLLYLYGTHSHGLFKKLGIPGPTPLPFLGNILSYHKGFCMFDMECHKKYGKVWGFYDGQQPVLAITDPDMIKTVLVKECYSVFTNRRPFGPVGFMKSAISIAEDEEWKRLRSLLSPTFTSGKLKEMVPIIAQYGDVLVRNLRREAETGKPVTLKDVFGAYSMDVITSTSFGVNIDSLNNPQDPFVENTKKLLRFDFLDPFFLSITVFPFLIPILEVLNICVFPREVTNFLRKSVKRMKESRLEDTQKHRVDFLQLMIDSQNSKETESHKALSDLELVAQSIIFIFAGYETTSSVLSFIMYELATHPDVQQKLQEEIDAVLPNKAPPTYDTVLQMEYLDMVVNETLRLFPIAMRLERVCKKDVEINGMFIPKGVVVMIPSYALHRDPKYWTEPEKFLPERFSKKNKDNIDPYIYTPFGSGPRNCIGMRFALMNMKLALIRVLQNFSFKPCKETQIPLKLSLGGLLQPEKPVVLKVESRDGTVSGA

Cc1ccc(-c2cc(=O)oc3cc(O[C@H](C)C(=O)N4CC5CCC(C4)N5C)ccc23)c(C)c1
Activity [1]: Active
Activity [2]: 68.66%
Activity [3]: 85.51%
solubility [4]: 0.226 mg/mL (≈ 506 µM)
Activity [5]: Active
IC50 [6]: > 40 µM
Activity [7]: 3.16%
IC50 [8]: 0.088 µM
Activity [9]: 87.12%
Activity [10]: inactive
inhibition [11]: Active
Cmax [12]: 0.364 µg/mL
Activity [13]: inactive
Activity [14]: inactive
AUC(0-inf) [15]: 1.9 µg·h/mL
AUC(0-inf) [16]: 0.439 µg·h/mL
IC50 [17]: > 40 µM
Activity [18]: Non-Toxic
inhibition [19]: Active
Activity [20]: Active
Activity [21]: 3.17%
IC50 [22]: > 50 µM
Activity [23]: Non-Toxic
Activity [24]: Non-Toxic
Activity [25]: Non-Toxic
Activity [26]: Non-Toxic
inhibition [27]: inactive
viability at 0.1 µM [28]: 90.2%
Activity [29]: Active
inhibition [30]: Active
Activity [31]: Active
inhibition [32]: Active
inhibition [33]: Active
